Results reported in patent publication US9963703B2, “Compositions and methods for treating pancreatic cancer” (Autotelic LLC, priority 2016, dated 2018).
In the oligonucleotide strings, read from the 5' end, every base follows the letter of its sugar. An asterisk marks phosphorothioate; unmarked linkages are phosphodiester. Other units and linkages are bracketed, terminal groups are in braces. A string of capitals states the bases alone. d = 2'-deoxy (DNA)

Columns and labels:
[1] = Preclinical toxicology, LOAEL in Cynomolgus monkeys; format: in vivo
Procedure: (§1) The clinical starting dose for the 7-days-on and 7-days-off schedule was based on the Lowest-Observed-Adverse-Effect-Level (LOAEL) devoid of severe toxicity in Cynomolgus monkeys as the most relevant species. This LOAEL of 4 mg/kg body weight (b.w.)/day is equivalent to approximately 1.3 mg/kg b.w./day or 48 mg/m^2/day on a body surface area basis in human adults. These numbers were rounded down and the safe starting dose was defined at 40 mg/m^2/day, equivalent to approximately 1 mg/kg b.w./day in humans. An alternative approach would have been based on the lowest lethal dose (LLD) of 300 mg/kg b.w. obtained in the acute single dose toxicity study in mice (in rats it was determined at 1000 mg/kg), at which 1 of 10 mice died (LLD10). According to the standard method, 10% of this dose (30 mg/kg) on a body surface area basis would then be defined as the clinical starting dose resulting in 90 mg/m^2/day. In the end, the lower of the two alternatives was chosen as starting dose.

A-172 glioma cells [2] = assay: A-172 glioma cells, alternative AP12009/TMZ treatment schedules (readout not stated); format: cell-based
Procedure: (§2) A-172 glioma cells were treated with a combination of AP12009 (trabedersen) 0 to 10 μM) and different concentrations of TMZ (temozolomide) for 7 days (treatment schedule 2*2/1*3 d).

TGFβ2 [3] = assay: TGFβ2 secretion/expression in HUP-T3 pancreatic cancer cells; format: cell-based
From the text: (§3) The aim of the study was to determine the effect of AP12009 (trabedersen) treatment in combination with 5-Fluorouracil (5-FU) on TGFβ2 secretion and on cellular proliferation of HUP-T3 pancreatic cancer cells and WiDr colon cancer cells in vitro.

A-172 glioma cells [4] = assay: Proliferation of A-172 glioma cells; format: cell-based
Procedure: as §2
(§4) In summary there is no clear beneficial effect in combining AP12009 with TMZ in A-172 cells.

A-172 glioma cells [5] = assay: Migration of A-172 glioma cells; format: cell-based
Procedure: as §2

[6] = tested on: HUP-T3 pancreatic cancer cells; assay: Cellular proliferation of HUP-T3 pancreatic cancer cells in vitro
From the text: as §3

TGFβ2 [7] = assay: TGFβ2 secretion in A-172 glioma cells; format: cell-based
Procedure: as §2, §4

WiDr colon cancer cells = assay: Cellular proliferation of WiDr colon cancer cells in vitro; format: cell-based
From the text: as §3

[8] = Acute single dose toxicity in rats; format: in vivo
Procedure: as §1

TGFβ2 [9] = assay: TGFβ2 secretion/expression in WiDr colon cancer cells; format: cell-based
From the text: as §3

[10] = converted from Cynomolgus LOAEL
[11] = AP12009 in combination with TMZ

trabedersen: TGF-beta2 specific phosphorothioate antisense oligodeoxynucleotide with the sequence 5′-CGGCATGTCTATTTTGTA-3′ (SEQ ID No: 1) (antisense dC*dG*dG*dC*dA*dT*dG*dT*dC*dT*dA*dT*dT*dT*dT*dG*dT*dA)
Lowest-Observed-Adverse-Effect-Level (LOAEL) devoid of severe toxicity ([1]; Cynomolgus monkeys): 4 mg/kg body weight (b.w.)/day | LOAEL, equivalent in human adults [1, 10]: approximately 1.3 mg/kg b.w./day | LOAEL, equivalent in human adults on a body surface area basis [1, 10]: ~48 mg/m^2/day | benefit of single TMZ treatment combined with 7 day AP12009 treatment (A-172 glioma cells [2]; TMZ day 0 for one day, AP12009 7 days (2*1/1*2/1*3 d)): did not show any benefit or disadvantage | benefit of pre-treatment with AP12009 (A-172 glioma cells [2]; pre-treatment (1*2/1*3 d) with AP12009 before combined AP12009 and TMZ (2*2/1*3 d)): did not show any benefit | TGFβ2 expression, % of untreated control (TGFβ2 [3]; 10 μM AP12009 monotherapy): 42% | combination effect on inhibition of TGFβ2 expression (TGFβ2 [3]; 5-FU added to 10 μM AP12009): sub-additive or even antagonistic effects | combination effect on cell proliferation (A-172 glioma cells [4]; [11]): no reproducible beneficial effect | effect on cell proliferation (A-172 glioma cells [4]; monotherapy, 7 days): slightly reduced | effect on migration compared with untreated control (A-172 glioma cells [5]; AP12009 10 μM monotherapy): did not affect migration | effect of AP12009 on TMZ effect on migration (A-172 glioma cells [5]; [11]): did not influence the effects of TMZ on migration | effect on proliferation of adding AP12009 to 5-FU compared with 5-FU alone [6]: did not result in any additional inhibition of proliferation | cell proliferation, % of untreated control ([6]; HUP-T3, 10 μM AP12009 monotherapy): 53% | combination effect on inhibition of TGFβ2 secretion (TGFβ2 [7]; [11]): additive effect | effect on TGFβ2 (TGFβ2 [7]; monotherapy, 7 days): strongly reduced | cell proliferation, % of untreated control (WiDr colon cancer cells; 10 μM AP12009): 76% | combination effect on cell proliferation (WiDr colon cancer cells; 10 μM AP12009 and 5-FU): sub-additive effects | lowest lethal dose (LLD) [8]: 1000 mg/kg | TGFβ2 expression, % of untreated control (TGFβ2 [9]; 10 μM AP12009): 54% | combination effect on TGFβ2 expression (TGFβ2 [9]; 10 μM AP12009 and 5-FU): sub-additive effects
